According to patent US20050025769A1, “Method of suppressing ongoing acute allograft rejection” (Fujisawa Pharmaceutical Company, Ltd., priority 1999, published 2005):

Tests used:
[1] = tested on: liver transplantation; details: clinical organ transplantation, estimated; cited from earlier work
[2] = tested on: CD4+, CD8+, NKR-P1A, and ED2 positive cells; experiment: Immunohistological examination of cell infiltration into heart allograft tissue; type: in vivo, rat; details: CsA 10 mg/kg/day, tacrolimus 3.2 mg/kg/day orally from day 5
Source text: The presence of CD4+, CD8+, NKR-P1A, and ED2 positive cells was examined on day 5, 7 and 10 after transplantation by immunohistological examination of graft tissue immunostained with specific antibodies to various immune cell populations. For immunohistology, 4 μm frozen sections of heart tissue were cut, fixed with acetone and exposed to monoclonal antibodies (Pharmingen, San Diego, Calif.) against markers for CD4+ (helper T cells), CD8^+ (cytotoxic T cells), NKR-P1A (natural killer cells), and ED2 (macrophage cells) positive cells. Then the sections were incubated with peroxidase-conjugated anti-mouse IgG antibodies. The bound peroxidase was detected using 3-amino-9-ethylcarbazole. The results were scored quantitatively. In each tissue section, three random representative fields were counted by visual microscope (×40) to determine the average cell number per tissue.

[3] = tested on: T-cell-dependent antibody production, graft vs. host reactivity, delayed-type sensitivity reactions; details: suppressing T-cell-dependent antibody production; cited from earlier work
[4] = tested on: IL2 and IL4 protein; experiment: ELISA assay of IL2 and IL4 proteins in serum peripheral lymphocytes of heart allograft recipients; type: in vivo, rat; details: day 7 post-transplantation; optimal doses from day 5
Method: (§1) The transplantation method described in Example 5 was used. […] The levels of IL2, IL4 and IL10 proteins in serum peripheral lymphocytes were measured at day 7 post-transplantation by ELISA assay.

[5] = tested on: heart allografts (BN to LEW); experiment: Rat heart transplantation, primary therapy to prevent acute allograft rejection (drug day 0 to day 10); type: in vivo; details: for median survival time (MST) of heart allografts: day 0 to day 10 after transplantation, allograft control 6 days
Source text: (§2) Inbred male Lewis rats (LEW) (RT1^1), weighing 200-250 g, were used as heart transplantation recipients. Inbred male LEW and inbred male Brown Norway (BN) (RT1^a), weighing 150-200 g, were used as isograft and allograft donor rats, respectively. […] Rejection of heart grafts was defined as the complete cessation of impulse and was confirmed visually after laparatomy. […] Control isograft and allograft recipients (5 rats each) received no immunosuppressant drugs after transplantation.

[6] = tested on: renal allografts (BN to LEW); experiment: Rescue of ongoing renal allograft rejection (drug from day 2 or day 4 for 13 days); type: in vivo, rat; details: untreated allograft controls rejected at day 8
Method: Male LEW rats weighing 250-350 g and male BN rats weighing 150-250 g were kept under specific pathogen-free conditions in the animal facility at Fujisawa Pharmaceutical Co., Ltd., Osaka, Japan. […] The donor ureter was directly implanted into the recipient bladder over a fine polyethylene internal stent. All recipients were bilaterally nephrectomized at the time of transplantation. The graft ischemic time was approximately 30 minutes. Survival of the kidney transplant was measured as time of rat survival. Graft rejection was confirmed by histological examination of kidney tissue from recipients with the observation of interstitial hemorrhage, tubular necrosis, venous endotheliatitis and diffuse lymphoplasmacytic infiltration indicating graft rejection. […] Control isograft and allograft recipients received either distilled water, olive oil, or placebo after transplantation.

[7] = tested on: IL10 protein; experiment: ELISA assay of IL10 protein in serum peripheral lymphocytes of heart allograft recipients; type: in vivo, rat; details: day 7 post-transplantation, compared with the allograft control; optimal doses from day 5
Method: as §1

[8] = tested on: IL10 mRNA; experiment: RT-PCR for IL10 mRNA in heart graft tissues; type: in vivo, rat; details: days 7 and 10; CsA 10 mg/kg/day, tacrolimus 3.2 mg/kg/day from day 5
Method: At day 5, 7 and 10 after transplantation, total RNA was extracted from heart graft tissues and tested by reverse transcriptase-polymerase chain reaction (RT-PCR) for cytokine mRNAs. Total RNA was extracted from transplanted heart tissue by TRIZOL (GIBCO BRL, Gaithersburg, Md.). RT-PCR was performed by reverse transcribing total RNA into cDNA using random hexamers (GIBCO BRL, Gaithersburg, Md.). The reverse-transcribed material was added to the PCR mixture with sense and anti-sense primers of IFNγ, IL2, IL4, IL10, IL1β, IL6, TNFα, TGFβ, Granzyme, Perforin or G3PDH and Taq DNA polymerase (Boehringer Mann heim GmbH, Mannheim, Germany). Amplification was performed with optimized cycles for each cytokine or G3PDH by ThermalCycler (Perkin-Elmer, Branchburg, N.J.). PCR product was applied to 2.3% agarose gel, resolved by electrophoresis, and visualized by ethidium bromide staining. The intensity of the gene-specific bands was obtained by the Gel Doc 1000 documentation system (BIO-RAD Laboratories, Hercules, Calif.). G3PDH mRNA was amplified as an internal control for RT-PCR.

[9] = tested on: allograft survival; details: optimal doses administered several days after transplantation, after allograft rejection has begun; cited from earlier work
[10] = tested on: heart allografts, ongoing graft rejection; experiment: Rescue of ongoing heart allograft rejection (drug from day 5 for 10 days); type: in vivo, rat; details: 3.2 mg/kg/day on days 5-14 post-transplantation
Source text: as §2
Therefore, drug administration was halted from day 0-day 4 after heart transplantation in order to initiate the transplantation process.

Structure (SMILES): C=CC[C@@H]1/C=C(\C)C[C@H](C)C[C@H](OC)[C@H]2O[C@@](O)(C(=O)C(=O)N3CCCC[C@H]3C(=O)O[C@H](/C(C)=C/[C@@H]3CC[C@@H](O)[C@H](OC)C3)[C@H](C)[C@@H](O)CC1=O)[C@H](C)C[C@@H]2OC [tacrolimus, Tacrolimus]
- potency relative to CsA in liver transplantation [1]: three to ten orders of magnitude more potent
- suppression of all of the cell infiltration into the local graft tissues ([2]; day 7): no significant suppression
- blocking CD8+ and NKR-P1A cell infiltration ([2]; day 10): significantly blocked
- blocking the CD4+ and ED2 cell filtration ([2]; day 10): partially blocking
- potency relative to CsA in vivo [3]: 10 times
- suppression of the expression of IL2 and IL4 protein [4]: equally
- median survival time (MST) of heart allografts ([5]; 1.0 mg/kg/day orally): 12 days
- median survival time (MST) of heart allografts ([5]; 3.2 mg/kg/day orally): 19 days
- median survival time (MST) of heart allografts ([5]; 10 mg/kg/day orally): 21 days
- optimal dose ([5]; primary therapy, oral, day 0 to day 10, based on MST): 3.2 mg/kg/day
- recipient rats that survived more than 50 days ([6]; 3.2 mg/kg/day from day 2-14 after grafting): all of 5
- recipient rats that survived more than 50 days ([6]; 3.2 mg/kg/day from day 4-16 after grafting): 3 of 5
- suppression of IL10 protein expression [7]: 73%
- suppression of IL10 mRNA expression [8]: more than CsA
- effect on allograft survival [9]: significantly increase allograft survival
- extension of the survival of the graft ([10]; versus allograft control): about 13 days
- MST of heart allografts ([10]; allograft control 6 days): 19 days
